Experimental data reported in patent US12679848B2, “Plasma kallikrein inhibitors” (Merck Sharp & Dohme LLC, priority 2020, dated 2026).

Tests used:
Human plasma kallikrein = target: T1, Human plasma kallikrein (Homo sapiens, UniProt P03952); assay: Plasma Kallikrein Assay; format: biochemical; conditions: purified Human plasma kallikrein 0.5 nM, substrate Acetyl-K-P-R-AFC, HEPES pH 7.4; read-out: PKal IC50
T1 construct: yields a heavy chain (371 amino acids) and a light chain (248 amino acids); The active site of plasma kallikrein is contained in the light chain; purchased Enzyme Research Laboratories
Summary of the method: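 Purified human plasma kallikrein at 0.5 nM final with substrate Acetyl-K-P-R-AFC at […], in 50 mM HEPES pH 7.4, 150 mM NaCl, 5 mM CaCl2, 0.1% PEG 8000, at rt or 37° C after enzyme-inhibitor equilibration. IC50 from four-parameter logistic fit of fluorescence rate; Ki via Cheng-Prusoff.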

human factor XIa = human factor XIa (Homo sapiens, UniProt P03951); assay: Factor XIa Assay; format: biochemical; conditions: human factor XIa 0.04 nM, substrate GPR-AFC, 30 min pre-incubation, 25° C., pH 7.4; read-out: FXIa IC50
human factor XIa, sequence (P03951 388-625 limits assumed): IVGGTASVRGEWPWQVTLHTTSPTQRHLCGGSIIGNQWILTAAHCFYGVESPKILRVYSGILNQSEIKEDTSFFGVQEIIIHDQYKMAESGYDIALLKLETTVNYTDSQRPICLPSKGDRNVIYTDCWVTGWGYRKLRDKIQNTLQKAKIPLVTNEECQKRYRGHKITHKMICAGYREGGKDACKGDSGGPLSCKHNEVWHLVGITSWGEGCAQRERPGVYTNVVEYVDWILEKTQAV
human factor XIa, sequence (P03951 19-387 partner limits assumed): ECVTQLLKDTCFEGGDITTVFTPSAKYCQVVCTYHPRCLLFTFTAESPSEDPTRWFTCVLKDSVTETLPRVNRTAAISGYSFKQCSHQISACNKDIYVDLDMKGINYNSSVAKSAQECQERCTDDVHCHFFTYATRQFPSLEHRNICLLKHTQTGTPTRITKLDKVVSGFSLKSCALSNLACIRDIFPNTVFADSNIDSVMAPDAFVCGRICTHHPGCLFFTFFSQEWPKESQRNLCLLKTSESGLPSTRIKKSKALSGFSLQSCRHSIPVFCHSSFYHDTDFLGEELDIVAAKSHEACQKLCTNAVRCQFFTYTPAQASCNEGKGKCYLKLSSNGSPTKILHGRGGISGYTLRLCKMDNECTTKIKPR

T1 sequence (P03952 391-638 limits assumed): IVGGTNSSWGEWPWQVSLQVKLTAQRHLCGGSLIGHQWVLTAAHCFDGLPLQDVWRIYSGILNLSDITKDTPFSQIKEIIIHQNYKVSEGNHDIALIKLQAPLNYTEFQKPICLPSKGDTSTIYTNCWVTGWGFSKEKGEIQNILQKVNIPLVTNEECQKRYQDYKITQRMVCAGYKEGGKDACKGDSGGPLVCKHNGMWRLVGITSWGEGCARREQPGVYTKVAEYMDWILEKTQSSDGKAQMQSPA
T1 sequence (P03952 20-390 partner limits assumed): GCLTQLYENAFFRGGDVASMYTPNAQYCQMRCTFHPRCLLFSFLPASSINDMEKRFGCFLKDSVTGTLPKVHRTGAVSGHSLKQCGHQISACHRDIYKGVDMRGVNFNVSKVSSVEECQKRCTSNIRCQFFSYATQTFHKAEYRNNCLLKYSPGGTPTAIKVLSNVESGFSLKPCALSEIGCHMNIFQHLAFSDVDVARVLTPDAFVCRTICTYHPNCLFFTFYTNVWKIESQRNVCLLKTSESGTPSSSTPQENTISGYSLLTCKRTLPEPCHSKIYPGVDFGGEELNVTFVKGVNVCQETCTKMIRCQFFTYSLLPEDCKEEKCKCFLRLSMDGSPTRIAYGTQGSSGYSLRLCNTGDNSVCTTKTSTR

Compound	IC50 (Human plasma kallikrein)	IC50 (human factor XIa)
Nc1c(C(=O)N2CCC[C@@]3(C2)OC(=O)Nc2ccc(Cl)c(F)c23)cnn1-c1ccnc2ccc(F)cc12 [Example 60, (R)-1'-(5-Amino-1-(6-fluoroquinolin-4-y1)-1H-pyrazole-4-carbonyl)-6-chloro-5-fluorospiro[benzo[d][1,3]oxazine-4,3'-piperidin]-2(1H)-one]	8 nM	599 nM
Nc1c(C(=O)N2CCC[C@@]3(C2)OC(=O)Nc2ccc(Cl)c(F)c23)cnn1Cc1ccccc1Cl [Example 44, (R)-1'-(5-Amino-1-(2-chlorobenzyl)-1H-pyrazole-4-carbonyl)-6-chloro-5-fluorospiro[benzo[d][1,3]oxazine-4,3'-piperidin]-2(1H)-one]	1.1 nM	251 nM
Cn1ncc(C(=O)N2CCC[C@@]3(C2)OC(=O)Nc2ccc(Cl)c(F)c23)c1N [Example 109, (R)-1'-(5-Amino-1-methyl-1H-pyrazole-4-carbonyl)-6-chloro-5-fluorospiro[benzo[d][1,3]oxazine-4,3'-piperidin]-2(1H)-one]	338 nM	> 10000 nM
Nc1c(C(=O)N2CCC[C@@]3(C2)OC(=O)Nc2ccc(Cl)c(F)c23)cnn1C(C1CC1)C(F)(F)F (single isomer, unassigned) [Example 124, (R)-1'-(5-Amino-1-((R or S)-1-cyclopropyl-2,2,2-trifluoroethyl)-1H-pyrazole-4-carbonyl)-6-chloro-5-fluorospiro[benzo[d][1,3]oxazine-4,3'-piperidin]-2(1H)-one]	1.4 nM	75 nM
Cc1ccc(-n2ncc(C(=O)N3CCC[C@@]4(C3)OC(=O)Nc3ccc(Cl)c(F)c34)c2N)cc1 [Example 111, (R)-1'-(5-Amino-1-(p-toly1)-1H-pyrazole-4-carbonyl)-6-chloro-5-fluorospiro[benzo[d][1,3]oxazine-4,3'-piperidin]-2(1H)-one]	80.3 nM	2990 nM
Nc1c(C(=O)N2CCC[C@@]3(C2)OC(=O)Nc2ccc(Cl)c(F)c23)cnn1C1Cc2ccccc2C1 [Example 38, (R)-1'-(5-Amino-1-(2,3-dihydro-1H-inden-2-yl)-1H-pyrazole-4-carbonyl)-6-chloro-5-fluorospiro[benzo[d][1,3]oxazine-4,3'-piperidin]-2(1H)-one]	2.4 nM	449 nM
Nc1c(C(=O)N2CCC[C@@]3(C2)OC(=O)Nc2ccc(Cl)c(F)c23)cnn1Cc1ccc(Cl)cc1 [Example 42, (R)-1'-(5-Amino-1-(4-chlorobenzyl)-1H-pyrazole-4-carbonyl)-6-chloro-5-fluorospiro[benzo[d][1,3]oxazine-4,3'-piperidin]-2(1H)-one]	1.4 nM	504 nM
CC1(C)CN(C(=O)c2cnn(-c3ccccc3)c2N)C[C@]2(C1)OC(=O)Nc1ccc(Cl)c(F)c12 [Example 69, (R)-1'-(5-Amino-1-phenyl-1H-pyrazole-4-carbonyl)-6-chloro-5-fluoro-5',5'-dimethylspiro[benzo[d][1,3]oxazine-4,3'-piperidin]-2(1H)-one]	41.7 nM	4590 nM
Nc1c(C(=O)N2CCC[C@@]3(C2)OC(=O)Nc2ccc(Cl)c(F)c23)cnn1Cc1cncnc1 [Example 51, (R)-1'-(5-Amino-1-(pyrimidin-5-ylmethyl)-1H-pyrazole-4-carbonyl)-6-chloro-5-fluorospiro[benzo[d][1,3]oxazine-4,3'-piperidin]-2(1H)-one]	9.8 nM	996 nM
Nc1c(C(=O)N2CCC[C@@]3(C2)OC(=O)Nc2ccc(Cl)c(F)c23)cnn1-c1ccccc1OC1CC1 [Example 89, (R)-1'-(5-Amino-1-(2-cyclopropoxyphenyl)-1H-pyrazole-4-carbonyl)-6-chloro-5-fluorospiro[benzo[d][1,3]oxazine-4,3'-piperidin]-2(1H)-one]	1.6 nM	162 nM
Nc1c(C(=O)N2CCC[C@@]3(C2)OC(=O)Nc2ccc(Cl)c(F)c23)cnn1Cc1ccc(F)c(F)c1 [Example 33, (R)-1'-(5-Amino-1-(3,4-difluorobenzy1)-1H-pyrazole-4-carbonyl)-6-chloro-5-fluorospiro[benzo[d][1,3]oxazine-4,3'-piperidin]-2(1H)-one]	1 nM	438 nM
CC(C1CC1)(n1ncc(C(=O)N2CCC[C@@]3(C2)OC(=O)Nc2ccc(Cl)c(F)c23)c1N)C(F)(F)F (single isomer, unassigned) [Example 126, (R)-1'-(5-Amino-1-((R or S)-2-cyclopropyl-1,1,1-trifluoropropan-2-y1)-1H-pyrazole-4-carbonyl)-6-chloro-5-fluorospiro[benzo[d][1,3]oxazine-4,3'-piperidin]-2(1H)-one]	2.2 nM	459 nM
COc1cccc(Cn2ncc(C(=O)N3CCC[C@@]4(C3)OC(=O)Nc3ccc(Cl)c(F)c34)c2N)c1 [Example 39, (R)-1'-(5-Amino-1-(3-methoxybenzyl)-1H-pyrazole-4-carbonyl)-6-chloro-5-fluorospiro[benzo[d][1,3]oxazine-4,3'-piperidin]-2(1H)-one]	1.2 nM	293 nM
